The compounds below were run against T1, COX-2 (Homo sapiens, UniProt P35354) (assay: Inhibition of COX: arachidonic acid metabolism). Conditions: 25 nmoles compound with 25 nmoles AA, 250 μL, 2 min.
T1 construct: purchased Cayman Chemical
T1 sequence (P35354 18-604): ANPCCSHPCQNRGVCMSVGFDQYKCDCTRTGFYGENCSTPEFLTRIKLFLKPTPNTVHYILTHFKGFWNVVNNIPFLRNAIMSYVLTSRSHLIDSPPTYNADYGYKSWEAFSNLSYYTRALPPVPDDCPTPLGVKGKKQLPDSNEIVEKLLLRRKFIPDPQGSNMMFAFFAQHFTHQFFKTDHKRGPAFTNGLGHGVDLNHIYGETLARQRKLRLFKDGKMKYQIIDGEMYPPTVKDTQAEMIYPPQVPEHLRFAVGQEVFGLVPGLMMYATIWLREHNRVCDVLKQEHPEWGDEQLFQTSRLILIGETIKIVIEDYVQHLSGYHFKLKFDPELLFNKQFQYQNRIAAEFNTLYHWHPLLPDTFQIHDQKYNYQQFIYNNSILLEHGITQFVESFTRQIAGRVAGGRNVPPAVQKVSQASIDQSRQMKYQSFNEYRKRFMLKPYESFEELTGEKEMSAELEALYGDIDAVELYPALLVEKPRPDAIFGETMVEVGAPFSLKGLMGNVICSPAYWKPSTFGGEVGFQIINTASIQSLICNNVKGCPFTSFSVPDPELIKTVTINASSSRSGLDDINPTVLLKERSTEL
Format: biochemical
Method: All compound solutions were made to a concentration of 10 mM in DMSO. Three tests were performed on each compound: hydrolysis, to determine the stability of the compound in assay conditions without the enzyme present; metabolism, to determine the stability of the compound with the enzyme present; and inhibition of arachidonic acid (AA) metabolism.
To test the stability of the compounds in enzyme assay conditions, 25 nmoles of the compound were incubated with 12.5 μl 100 uM hematin in assay buffer (0.1M PH8.0 Tris-HCl, 2 mM phenol, 5 mM EDTA, 0.1% BSA, final volume of 250 μL) for 2 minutes at 25° C. Samples (100 μL) were taken at the start of the assay and after 2 minutes, diluted 1:5 with acetonitrile and centrifuged (20,000 RCF, five minutes, room temperature) to precipitate the proteins. The resulting supernatant was injected onto the HPLC. Calculations for determining the percent compound remaining are described in the following equation: % R=Peak Area(T2)/Peak Area(T0) To determine whether or not the compounds were good substrates for COX enzyme, 25 nmoles of the compound were incubated with 12.5 μl COX enzyme (purchased form Cayman Chemical) and 5 uM hematin in assay buffer (final volume 250 μL). The reaction mixture was treated in the same manner as described above. Concentrations of AA were calculated using external standards. […] Again the reaction mixture was treated in the same manner as described above and the concentrations of AA were calculated using external standards. Percent inhibition was calculated using the following equation: % Inhib.=(AA0-AA2)i/(AA0-AA2)s where (AA0-AA2)i is the amount of arachidonic acid metabolized over 2 minutes with the inhibitor present and (AA0-AA2)s is the amount of arachidonic acid metabolized over 2 minutes when the inhibitor is not present. […] The reaction mixtures were treated as described above and the amount of AA metabolized was calculated. The software package GraphPad Prism was utilized to calculate IC50 and Ki. HPLC Conditions:
Chromatographic separation was achieved using an Ultrasphere ODS Pre-column (4.6×45 mm) from Beckman. Hardware consisted of a Waters Millennium HPLC system with a 20 μL injection loop. The mobile phase consisted of 8.5% o-phosphoric acid:acetonitrile (3:7), run isocratically at a rate of 1 mL/min and detection at 204 nm. The total run time was 8 minutes with AA at 6.0 minutes.
For `O=C(CCC/C=C\C/C=C\C/C=C\C/C=C\CCCCc1ccccc1)NCC1CC1` [Compound A1], the “COX-2 % Inhibition” value was 78.4%.
In the case of `O=C(CCC/C=C\C/C=C\C/C=C\C/C=C\CCc1ccccc1)Nc1ccc(O)cc1` [Compound A3], the “COX-2 % Inhibition” value is reported as 77.4%.
For `COc1cc(CNC(=O)CCC/C=C\C/C=C\C/C=C\C/C=C\CCCCN=[N+]=[N-])ccc1O` [Compound A7], the “COX-2 % Inhibition” value was 42.4%.
For `COc1cc(CNC(=O)CCC/C=C\C/C=C\C/C=C\C/C=C\CCCCN=C=S)ccc1O` [Compound A12], the “COX-2 % Inhibition” value was 46.2%.

From patent publication US8202893B2, “Cannabinergic lipid ligands” (University of Connecticut, priority 2004, dated 2012)
